The values that follow come from PMC8788131, “AMPlify: attentive deep learning model for discovery of novel antimicrobial peptides effective against WHO priority pathogens” (BMC Genomics, 2022).

≈ marks a conversion by molar mass, not a printed value. Like-named read-outs stand apart in the source and are kept apart here. Where a SMILES comes first, the peptide text is derived from it. Where no end group is shown, it is not given here.

Experiment [1] deals with E. coli ATCC 25922. Type of experiment: cell-based, Escherichia coli. The text has this: (§1) From the novel candidate AMP sequences predicted by AMPlify, 11 were selected for validation in vitro. Minimum inhibitory concentrations (MIC) and minimum bactericidal concentrations (MBC) were obtained using the AST procedures outlined by the Clinical and Laboratory Standards Institute (CLSI), with the recommended adaptations for testing cationic AMPs described by Hancock.
A panel of two Gram-positive and four Gram-negative bacterial isolates was generated to test predicted AMPs. Staphylococcus aureus ATCC 6538P, Streptococcus pyogenes (hospital isolate, unknown strain), Pseudomonas aeruginosa ATCC 10148, and Escherichia coli ATCC 9723H were obtained and tested at the University of Victoria. Additionally, a multi-drug resistant (MDR), carbapenemase-producing New-Delhi metallobetalactamase (CPO-NDM) clinical isolate of Escherichia coli was obtained from the BC Centre for Disease Control. […] The latter two strains were tested at the BC Centre for Disease Control using identical AST procedures.
(§2) Bacteria were streaked onto nonselective nutrient agar from frozen stocks and incubated for 18–24 h at 37 °C. To prepare a standardized bacterial inoculum, isolated colonies were suspended in Mueller-Hinton Broth (MHB) and adjusted to an optical density of 0.08–0.1 at 600 nm, equivalent to a 0.5 McFarland standard and representing approximately 1–2 × 10^8 CFU/mL (CFU: colony forming units). The inoculum was diluted 1/250 in MHB to the target concentration of (5 ± 3) × 10^5 CFU/mL. Total viability counts from the final inoculum were examined to confirm the target bacterial density was obtained.
(§3) Selected candidate AMPs were purchased from Genscript (Piscataway, NJ), where they were synthesized using the vendor’s Flexpeptide platform. Lyophilized peptides were suspended in sterile ultrapure water or filter-sterilized 0.2% acetic acid as recommended by solubility testing reports provided with the GenScript synthesis. AMPs were diluted from 2560 to 5 μg/mL by a two-fold serial dilution in a 96-well polypropylene microtitre plate before 100 μl of the standardized bacterial inoculum of (5 ± 3) × 10^5 CFU/mL was added to each well. This generated a final test range of 256 to 0.5 μg/mL. MIC values were reported as the peptide concentration that produced no visible bacterial growth after a 16–24 h incubation at 37 °C.
(§4) For each AMP dilution series, the contents of the MIC well and the two adjacent wells containing two- and four-fold MIC were plated onto nonselective nutrient agar and incubated for 24 h at 37 °C. The concentration which killed 99.9% of the initial inoculum was determined to be the MBC.

The test system of experiment [2] is all E. coli strains tested. Type of experiment: cell-based, Escherichia coli.
From the text: as §1
(§5) A panel of two Gram-positive and four Gram-negative bacterial isolates was generated to test predicted AMPs. Staphylococcus aureus ATCC 6538P, Streptococcus pyogenes (hospital isolate, unknown strain), Pseudomonas aeruginosa ATCC 10148, and Escherichia coli ATCC 9723H were obtained and tested at the University of Victoria. Additionally, a multi-drug resistant (MDR), carbapenemase-producing New-Delhi metallobetalactamase (CPO-NDM) clinical isolate of Escherichia coli was obtained from the BC Centre for Disease Control. E. coli ATCC […] was purchased from Cedarlane Laboratories (Burlington, Ontario, Canada) for comparison of AMP activity between a wild type, drug-susceptible control and the MDR strain. The latter two strains were tested at the BC Centre for Disease Control using identical AST procedures.
as §2, §3, §4

Experiment [3] relates to MDR E. coli (CPO-NDM) clinical isolate. Type of experiment: cell-based, Escherichia coli.
From the text: as §1, §5, §2, §3, §4

For experiment [4], the system named is Staphylococcus aureus ATCC 6538P. Type of experiment: cell-based.
From the text: as §1, §5, §2, §3, §4

The test system of experiment [5] is Escherichia coli ATCC 9723H. Type of experiment: cell-based.
From the text: as §1, §5, §2, §3, §4

The subject of experiment [6] is Streptococcus pyogenes (unknown strain; hospital isolate). Format: cell-based.
From the text: as §1, §5, §2, §3, §4

Experiment [7] concerns at least one of the ten bacterial species tested: Bacillus subtilis, Micrococcus luteus, Staphyloccus aureus, Staphylococcus epidermis, Escherichia coli …. Also on record: method as in Won and co-workers [2]; key: ✓: Whether the peptide shows antimicrobial activity against at least one of the ten bacterial species tested in the work. To be noted: activity against at least one of ten bacterial species; blank cell = not active; ref Won and co-workers [2]; cited from earlier work.

Setting [8] is: range over all E. coli strains tested (ATCC 9723H, ATCC 25922, MDR CPO-NDM).

On to FFPRVLPLANKFLPTIYCALPKSVGN [RaCa-7], for which the MBC was 16 to 128 µg/mL in experiment [1] (ATCC 25922); 6 to 44 µM in experiment [1] (ATCC 25922, 24 h); 6 to 88 µM in experiment [2] (all strains tested); 16 to 128 µg/mL in experiment [3]; 6 to 44 µM in experiment [3] (24 h); 32 to 256 µg/mL in experiment [5] (ATCC 9723). The compound also showed an MBC in experiment [5] (ATCC 9723, 24 h) of 11 to 88 µM. The MIC in experiment [2] (all strains tested) is 6 to 44 µM; in experiment [4] (ATCC 6538), at least 88 µM.

Take `CC[C@H](C)[C@H](NC(=O)[C@H](CCCCN)NC(=O)[C@@H](NC(=O)[C@H](C)NC(=O)[C@H](Cc1ccccc1)NC(=O)[C@H](CC(=O)O)NC(=O)[C@H](CCCCN)NC(=O)CNC(=O)[C@@H](NC(=O)[C@@H](NC(=O)[C@H](CCCCN)NC(=O)[C@@H](NC(=O)[C@@H](NC(=O)[C@H](CC(=O)O)NC(=O)[C@H](CC(C)C)NC(=O)[C@H](CC(C)C)NC(=O)CN)[C@@H](C)CC)[C@@H](C)CC)[C@@H](C)O)[C@@H](C)O)C(C)C)C(=O)N[C@@H](CC(C)C)C(=O)N[C@@H](CC(=O)O)C(=O)N[C@@H](CC(N)=O)C(=O)N[C@@H](CC(C)C)C(=O)N[C@@H](CCCCN)C(=O)N[C@@H](CS)C(=O)N[C@@H](CCCCN)C(=O)N[C@@H](CC(C)C)C(=O)N[C@@H](C)C(=O)NCC(=O)NCC(=O)N[C@@H](CS)C(=O)N1CCC[C@H]1C(=O)N1CCC[C@H]1C(=O)O` [RaCa-1] (H-GLLDIIKTTGKDFAVKILDNLKCKLAGGCPP-OH; N-terminus and C-terminus assumed): the MBC in experiment [1] (ATCC 25922) was 32 to 128 µg/mL; in experiment [1] (ATCC 25922, 24 h) it was 10 to 39 µM; in experiment [2] (all strains tested) it was 10 to 79 µM; in experiment [3], 64 to 128 µg/mL; in experiment [3] (24 h), 20 to 39 µM; in experiment [6] it was at least 256 µg/mL. Further, the minimum bactericidal concentration (MBC) in experiment [6] (24 h) is at least 79 µM; in experiment [5] (ATCC 9723), 128 to 256 µg/mL; in experiment [5] (ATCC 9723, 24 h), 39 to 79 µM. Also, the minimum inhibitory concentration (MIC) in experiment [2] (all strains tested) was 10 to 39 µM; in experiment [6] it was 256 µg/mL (≈ 78.9 µM).

Consider `CC[C@H](C)[C@H](NC(=O)[C@@H](NC(=O)[C@@H]1CCCN1C(=O)[C@H](Cc1ccccc1)NC(=O)[C@@H](N)Cc1ccccc1)[C@@H](C)CC)C(=O)N[C@@H](C)C(=O)N[C@@H](CCCNC(=N)N)C(=O)N[C@@H](CC(C)C)C(=O)N[C@@H](C)C(=O)N[C@@H](C)C(=O)N[C@@H](CCCCN)C(=O)N[C@H](C(=O)N[C@H](C(=O)N1CCC[C@H]1C(=O)N[C@@H](CO)C(=O)N[C@@H](CC(C)C)C(=O)N[C@H](C(=O)N[C@@H](CS)C(=O)N[C@@H](C)C(=O)N[C@H](C(=O)N[C@H](C(=O)N[C@@H](CCCCN)C(=O)N[C@@H](CCCCN)C(=O)N[C@@H](CS)C(=O)O)[C@@H](C)O)C(C)C)C(C)C)[C@@H](C)CC)C(C)C` [RaCa-2] (H-FFPIIARLAAKVIPSLVCAVTKKC-OH; N-terminus and C-terminus assumed), for which the minimum bactericidal concentration (MBC) in experiment [1] (ATCC 25922) lay within 4 to 16 µg/mL; in experiment [1] (ATCC 25922, 24 h), 2 to 6 µM; in experiment [3], 4 to 16 µg/mL; in experiment [3] (24 h), 2 to 6 µM; in experiment [4] (ATCC 6538), 2 to 4 µg/mL; in experiment [4] (ATCC 6538, 24 h) it was 1 to 2 µM. The MBC was 64 to 128 µg/mL in experiment [6]; 25 to 49 µM in experiment [6] (24 h); 8 to 16 µg/mL in experiment [5] (ATCC 9723); 3 to 6 µM in experiment [5] (ATCC 9723, 24 h). Besides, the values for the minimum inhibitory concentration (MIC) in experiment [2] (all strains tested) and in experiment [3] were 2 to 6 µM and 4 to 16 µg/mL, respectively.

With `CC[C@H](C)[C@H](NC(=O)[C@H](CO)NC(=O)[C@H](CCCCN)NC(=O)CNC(=O)[C@@H](NC(=O)[C@@H](NC(=O)[C@H](CCCCN)NC(=O)[C@@H](NC(=O)[C@@H](NC(=O)[C@H](CCC(=O)O)NC(=O)[C@H](Cc1c[nH]c2ccccc12)NC(=O)[C@H](CC(C)C)NC(=O)CN)[C@@H](C)O)[C@@H](C)CC)[C@@H](C)O)[C@@H](C)O)C(=O)N[C@@H](C)C(=O)N[C@@H](CC(C)C)C(=O)N[C@@H](CC(N)=O)C(=O)N[C@@H](CC(C)C)C(=O)N[C@@H](CC(C)C)C(=O)N[C@@H](CC(=O)O)C(=O)N[C@@H](CCCCN)C(=O)N[C@H](C(=O)N[C@@H](CCCCN)C(=O)N[C@@H](CS)C(=O)N[C@@H](CCCCN)C(=O)N[C@H](C(=O)N[C@@H](C)C(=O)NCC(=O)NCC(=O)N[C@@H](CS)C(=O)N1CCC[C@H]1C(=O)N1CCC[C@H]1C(=O)O)[C@@H](C)CC)[C@@H](C)CC` [RaCa-3] (H-GLWETIKTTGKSIALNLLDKIKCKIAGGCPP-OH; N-terminus and C-terminus assumed), the MBC in experiment [1] (ATCC 25922) fell in the range of 8 to 16 µg/mL; in experiment [1] (ATCC 25922, 24 h), 2 to 5 µM; in experiment [2] (all strains tested), 2 to 20 µM; in experiment [3], 16 to 64 µg/mL; in experiment [3] (24 h), 5 to 20 µM; in experiment [5] (ATCC 9723), 16 to 32 µg/mL. This compound also registered an MBC in experiment [5] (ATCC 9723, 24 h) of 5 to 10 µM. For the same compound, the results for the MIC in experiment [2] (all strains tested) and in experiment [3] were 2 to 10 µM and 16 to 32 µg/mL, respectively.

In the case of Gaegurin 5 [GGN5], the “Active?” value in experiment [7] is on record as “✓”.

`CC[C@H](C)[C@H](NC(=O)[C@H](CCCCN)NC(=O)[C@H](CCC(=O)O)NC(=O)[C@H](CCCCN)NC(=O)[C@H](CO)NC(=O)[C@H](CCCCN)NC(=O)[C@H](CCCNC(=N)N)NC(=O)[C@H](Cc1ccccc1)NC(=O)[C@H](Cc1ccccc1)NC(=O)[C@H](CC(=O)O)NC(=O)CNC(=O)[C@H](CC(C)C)NC(=O)[C@@H](N)CC(C)C)C(=O)NCC(=O)N[C@@H](CCCCN)C(=O)N[C@@H](CCC(=O)O)C(=O)N[C@@H](Cc1ccccc1)C(=O)N[C@@H](CCCCN)C(=O)N[C@@H](CCCNC(=N)N)C(=O)N[C@H](C(=O)N[C@H](C(=O)N[C@@H](CCC(N)=O)C(=O)N[C@@H](CCCNC(=N)N)C(=O)N[C@H](C(=O)N[C@@H](CCCCN)C(=O)N[C@@H](CC(=O)O)C(=O)N[C@@H](Cc1ccccc1)C(=O)N[C@@H](CC(C)C)C(=O)N[C@@H](CCCNC(=N)N)C(=O)N[C@@H](CC(N)=O)C(=O)N[C@@H](CC(C)C)C(=O)N[C@H](C(=O)N1CCC[C@H]1C(=O)N[C@@H](CCCNC(=N)N)C(=O)N[C@H](C(=O)N[C@@H](CCC(=O)O)C(=O)N[C@@H](CO)C(=O)O)[C@@H](C)O)C(C)C)[C@@H](C)CC)C(C)C)[C@@H](C)CC` [LL37, reference compound]: the MBC in experiment [1] (E. coli ATCC 25922, as Table 3, in µg/mL, range over three independent experiments, NI = no inhibition observed) is 8 to 16 µg/mL; in experiment [1] (E. coli ATCC 25922, plated on agar 24 h at 37 °C, kills 99.9% of inoculum, range over three independent experiments, NI = no inhibition observed), 2 to 4 µM; in experiment [2] (setting [8]), 2 to 7 µM. In addition, the minimum inhibitory concentration (MIC) in experiment [2] (setting [8]) lay in the range of 2 to 4 µM.
